Assays:
[1] = tested on: Escherichia coli; experiment: Fluorescence imaging of co-incubated bacteria under laser confocal fluorescence microscope; type: cell-based
Experimental: (§1) A preparation method for a nucleic acid functionalized metal nanoprobe includes: • (1) deoxyribonucleic acid (DNA) molecules are fully mixed with a diluted nucleic acid intercalator SYBR Green I (2.5×), and a mixture is placed at a room temperature to react in dark for 30 min. • (2) a reaction product of step (1) is fully mixed with 100 μmol/L chloroauric acid solution to obtain a mixed solution A. • (3) the mixed solution A and Escherichia coli are continuously co-incubated in a constant-temperature shaking table for 1 h-12 h to obtain a mixed solution B. A normal control group (a chloroauric acid solution having the same concentration as the experimental group is merely added) and a blank group (an Escherichia coli suspension without any treatment) are set. After incubation, a small amount of the above mixed solution are dripped into the slide glass, and mounting is performed with a cover glass. • (4) A slide glass is placed under a laser confocal fluorescence microscope to be activated. Further, the above mixture is irradiated with 808 nm laser for 5-10 min, is cultured on a solid medium, and counted.

[2] = tested on: Escherichia coli; experiment: Germicidal effect after 808 nm laser irradiation, culture on solid medium and counting; type: cell-based
Experimental: as §1

[Au+3].[Cl-].[Cl-].[Cl-].[Cl-].[H+] [chloroauric acid]
fluorescence / signal intensity ([1]; co-incubated with Escherichia coli 1 h-12 h, metal cation 100 μmol/L): weak fluorescence | concentration at which signal intensity reaches maximum / does not increase any more ([1]; method of Example 1, 0, 10, 50, 100, 200, 300 μmol/L tested (FIG. 2)): 100 µmol/L | signal intensity with increase of concentration ([1]; method of Example 1, 0-300 μmol/L (FIG. 2)): enhanced | germicidal (antibacterial) effect ([2]; 808 nm laser 5-10 min, cultured on solid medium and counted, metal cation 100 μmol/L): most of Escherichia coli is killed | sterilization effect with increase of concentration ([2]; method of Example 1, 0-300 μmol/L (FIG. 3)): gradually enhanced

Source: patent US20240240078A1, “NUCLEIC ACID FUNCTIONALIZED METAL NANOPROBE AND PREPARATION METHOD THEREFOR” (SOUTHEAST UNIVERSITY, priority 2021, published 2024)
